Assay results taken from ChEMBL document CHEMBL5380795, “Design, Synthesis, and Bioactivity Investigation of Cyclic Lipopeptide Antibiotics Containing Eight to Nine Amino Acids” (J Med Chem, 2023).
In brackets after ≈: the same amount, converted by molar mass.

Columns and labels:
Staphylococcus aureus [1] = assay: Antibacterial activity against methicillin resistant Staphylococcus aureus ATCC 33591 assessed as inhibition of bacterial growth incubated for 18 to 24 hrs by broth microdilution method; type: functional; conditions: time 18-24 hrs
Staphylococcus aureus [2] = assay: Antibacterial activity against Staphylococcus aureus ATCC 29213 assessed as inhibition of bacterial growth incubated for 18 to 24 hrs by broth microdilution method; type: functional; conditions: time 18-24 hrs
[3] = test system: Staphylococcus epidermidis; assay: Antibacterial activity against methicillin resistant Staphylococcus epidermidis clinical isolate 19-5 assessed as inhibition of bacterial growth incubated for 18 to 24 hrs by broth microdilution method; type: functional; conditions: time 18-24 hrs
[4] = test system: Staphylococcus epidermidis; assay: Antibacterial activity against methicillin resistant Staphylococcus epidermidis clinical isolate 19-6 assessed as inhibition of bacterial growth incubated for 18 to 24 hrs by broth microdilution method; type: functional; conditions: time 18-24 hrs
Escherichia coli [5] = assay: Antibacterial activity against Escherichia coli ATCC BAA-2523 assessed as inhibition of bacterial growth incubated for 18 to 24 hrs by broth microdilution method; type: functional; conditions: time 18-24 hrs
Escherichia coli [6] = assay: Antibacterial activity against Escherichia coli NCTC 13353 assessed as inhibition of bacterial growth incubated for 18 to 24 hrs by broth microdilution method; type: functional; conditions: time 18-24 hrs
Escherichia coli [7] = assay: Antibacterial activity against Escherichia coli clinical isolate 19-2 assessed as inhibition of bacterial growth incubated for 18 to 24 hrs by broth microdilution method; type: functional; conditions: time 18-24 hrs
Escherichia coli [8] = assay: Antibacterial activity against KPC producing Escherichia coli ATCC BAA-2340 assessed as inhibition of bacterial growth incubated for 18 to 24 hrs by broth microdilution method; type: functional; conditions: time 18-24 hrs
Klebsiella pneumoniae [9] = assay: Antibacterial activity against carbapenem resistant Klebsiella pneumoniae clinical isolate 19-15 assessed as inhibition of bacterial growth incubated for 18 to 24 hrs by broth microdilution method; type: functional; conditions: time 18-24 hrs
Klebsiella pneumoniae [10] = assay: Antibacterial activity against carbapenem resistant Klebsiella pneumoniae clinical isolate 19-17 assessed as inhibition of bacterial growth incubated for 18 to 24 hrs by broth microdilution method; type: functional; conditions: time 18-24 hrs
Klebsiella pneumoniae [11] = assay: Antibacterial activity against KPC producing Klebsiella pneumoniae ATCC BAA-1705 assessed as inhibition of bacterial growth incubated for 18 to 24 hrs by broth microdilution method; type: functional; conditions: time 18-24 hrs
Pseudomonas aeruginosa [12] = assay: Antibacterial activity against Pseudomonas aeruginosa clinical isolate 19-1 assessed as inhibition of bacterial growth incubated for 18 to 24 hrs by broth microdilution method; type: functional; conditions: time 18-24 hrs
Pseudomonas aeruginosa [13] = assay: Antibacterial activity against carbapenem resistant Pseudomonas aeruginosa clinical isolate 19-3 assessed as inhibition of bacterial growth incubated for 18 to 24 hrs by broth microdilution method; type: functional; conditions: time 18-24 hrs
Pseudomonas aeruginosa [14] = assay: Antibacterial activity against carbapenem resistant Pseudomonas aeruginosa clinical isolate 17-1 assessed as inhibition of bacterial growth incubated for 18 to 24 hrs by broth microdilution method; type: functional; conditions: time 18-24 hrs
Pseudomonas aeruginosa [15] = assay: Antibacterial activity against Pseudomonas aeruginosa ATCC 27853 assessed as inhibition of bacterial growth incubated for 18 to 24 hrs by broth microdilution method; type: functional; conditions: time 18-24 hrs
Acinetobacter baumannii [16] = assay: Antibacterial activity against carbapenem resistant Acinetobacter baumannii clinical isolate 19-8 assessed as inhibition of bacterial growth incubated for 18 to 24 hrs by broth microdilution method; type: functional; conditions: time 18-24 hrs
Acinetobacter baumannii [17] = assay: Antibacterial activity against oxacillinase-27 producing Acinetobacter baumannii NCTC 13304 assessed as inhibition of bacterial growth incubated for 18 to 24 hrs by broth microdilution method; type: functional; conditions: time 18-24 hrs
[18] = Cytotoxicity against human HK-2 cells assessed as inhibition of cell growth incubated for 72 hrs by CCK-8 assay; type: toxicity, cell-based
[19] = Selectivity index, ratio of IC50 for cytotoxicity against human HK-2 cells to MIC for antibacterial activity against Escherichia coli ATCC BAA-2523; type: toxicity, cell-based

SMILES	MIC (Staphylococcus aureus [1])	MIC (Staphylococcus aureus [2])	MIC [3]	MIC [4]	MIC (Escherichia coli [5])	MIC (Escherichia coli [6])	MIC (Escherichia coli [7])	MIC (Escherichia coli [8])	MIC (Klebsiella pneumoniae [9])	MIC (Klebsiella pneumoniae [10])	MIC (Klebsiella pneumoniae [11])	MIC (Pseudomonas aeruginosa [12])	MIC (Pseudomonas aeruginosa [13])	MIC (Pseudomonas aeruginosa [14])	MIC (Pseudomonas aeruginosa [15])	MIC (Acinetobacter baumannii [16])	MIC (Acinetobacter baumannii [17])	IC50 at 72 h [18]	selectivity ratio [19]
CCCCCCCCCC(=O)N[C@H](CCN)C(=O)N[C@H]1CCNC(=O)[C@H](CC(C)C)NC(=O)[C@H](CCN)NC(=O)[C@H](CCN)NC(=O)[C@H](Cc2ccccc2)NC(=O)[C@@H](Cc2ccccc2)NC(=O)[C@H](CCN)NC1=O	32 µg/mL (≈ 30.1 µM)	8 µg/mL (≈ 7.53 µM)	1 µg/mL (≈ 0.941 µM)	1 µg/mL (≈ 0.941 µM)	8 µg/mL (≈ 7.53 µM)	8 µg/mL (≈ 7.53 µM)	8 µg/mL (≈ 7.53 µM)	2 µg/mL (≈ 1.88 µM)	8 µg/mL (≈ 7.53 µM)	16 µg/mL (≈ 15.1 µM)	16 µg/mL (≈ 15.1 µM)	4 µg/mL (≈ 3.77 µM)	4 µg/mL (≈ 3.77 µM)	8 µg/mL (≈ 7.53 µM)	8 µg/mL (≈ 7.53 µM)	16 µg/mL (≈ 15.1 µM)	16 µg/mL (≈ 15.1 µM)	32.2 µg/mL (≈ 30.3 µM)	4
CCCCCCCCCC(=O)N[C@H](CCN)C(=O)N[C@H]1CCNC(=O)[C@H]([C@@H](C)O)NC(=O)[C@H](CCN)NC(=O)[C@H](CCN)NC(=O)[C@H](CC(C)C)NC(=O)[C@@H](Cc2ccc(Cl)c(Cl)c2)NC(=O)[C@H](CCN)NC1=O	32 µg/mL (≈ 29.5 µM)	16 µg/mL (≈ 14.7 µM)	4 µg/mL (≈ 3.69 µM)	4 µg/mL (≈ 3.69 µM)	2 µg/mL (≈ 1.84 µM)	4 µg/mL (≈ 3.69 µM)	2 µg/mL (≈ 1.84 µM)	2 µg/mL (≈ 1.84 µM)	4 µg/mL (≈ 3.69 µM)	4 µg/mL (≈ 3.69 µM)	4 µg/mL (≈ 3.69 µM)	4 µg/mL (≈ 3.69 µM)	4 µg/mL (≈ 3.69 µM)	16 µg/mL (≈ 14.7 µM)	16 µg/mL (≈ 14.7 µM)	16 µg/mL (≈ 14.7 µM)	16 µg/mL (≈ 14.7 µM)	28.5 µg/mL (≈ 26.3 µM)	14.3
CCCCCCCCCC(=O)N[C@H](CCN)C(=O)N[C@H]1CCNC(=O)[C@H](CC(C)C)NC(=O)[C@H](CCN)NC(=O)[C@H](CCN)NC(=O)[C@H](CC(C)C)NC(=O)[C@@H](CC(C)C)NC(=O)[C@H](CCN)NC1=O	64 µg/mL (≈ 64.4 µM)	32 µg/mL (≈ 32.2 µM)	2 µg/mL (≈ 2.01 µM)	8 µg/mL (≈ 8.05 µM)	16 µg/mL (≈ 16.1 µM)	16 µg/mL (≈ 16.1 µM)	16 µg/mL (≈ 16.1 µM)	4 µg/mL (≈ 4.02 µM)	8 µg/mL (≈ 8.05 µM)	16 µg/mL (≈ 16.1 µM)	2 µg/mL (≈ 2.01 µM)	2 µg/mL (≈ 2.01 µM)	8 µg/mL (≈ 8.05 µM)	2 µg/mL (≈ 2.01 µM)	1 µg/mL (≈ 1.01 µM)	4 µg/mL (≈ 4.02 µM)	8 µg/mL (≈ 8.05 µM)	53.5 µg/mL (≈ 53.8 µM)	3.3
CCCCCCCCCC(=O)N[C@H](CCN)C(=O)N[C@H]1CCNC(=O)[C@H]([C@@H](C)O)NC(=O)[C@H](CCN)NC(=O)[C@H](CCN)NC(=O)[C@H](CC(C)C)NC(=O)[C@@H](Cc2ccc(C)cc2)NC(=O)[C@H](CCN)NC1=O	> 64 µg/mL	32 µg/mL (≈ 31.1 µM)	2 µg/mL (≈ 1.94 µM)	2 µg/mL (≈ 1.94 µM)	1 µg/mL (≈ 0.971 µM)	8 µg/mL (≈ 7.76 µM)	2 µg/mL (≈ 1.94 µM)	1 µg/mL (≈ 0.971 µM)	4 µg/mL (≈ 3.88 µM)	4 µg/mL (≈ 3.88 µM)	2 µg/mL (≈ 1.94 µM)	1 µg/mL (≈ 0.971 µM)	1 µg/mL (≈ 0.971 µM)	32 µg/mL (≈ 31.1 µM)	32 µg/mL (≈ 31.1 µM)	32 µg/mL (≈ 31.1 µM)	16 µg/mL (≈ 15.5 µM)	71.6 µg/mL (≈ 69.5 µM)	71.6
CCCCCCCCCC(=O)N[C@@H](C(=O)N[C@H]1CCNC(=O)[C@H]([C@@H](C)O)NC(=O)[C@H](CCN)NC(=O)[C@H](CCN)NC(=O)[C@H](CC(C)C)NC(=O)[C@@H](CC(C)C)NC(=O)[C@H](CCN)NC1=O)[C@H](C)O	> 64 µg/mL	> 64 µg/mL	16 µg/mL (≈ 16.3 µM)	64 µg/mL (≈ 65.1 µM)	64 µg/mL (≈ 65.1 µM)	64 µg/mL (≈ 65.1 µM)	32 µg/mL (≈ 32.5 µM)	64 µg/mL (≈ 65.1 µM)	64 µg/mL (≈ 65.1 µM)	64 µg/mL (≈ 65.1 µM)	32 µg/mL (≈ 32.5 µM)	16 µg/mL (≈ 16.3 µM)	32 µg/mL (≈ 32.5 µM)	32 µg/mL (≈ 32.5 µM)	8 µg/mL (≈ 8.14 µM)	> 64 µg/mL	64 µg/mL (≈ 65.1 µM)	240 µg/mL (≈ 244 µM)	3.8
CCCCCCCCCC(=O)N[C@H](CCN)C(=O)N[C@H]1CCNC(=O)[C@H](CO)NC(=O)[C@H](CCN)NC(=O)[C@H](CCN)NC(=O)[C@H](Cc2ccccc2)NC(=O)[C@@H](CC(C)C)NC(=O)[C@H](CCN)NC1=O	> 64 µg/mL	64 µg/mL (≈ 63.9 µM)	4 µg/mL (≈ 3.99 µM)	2 µg/mL (≈ 2 µM)	16 µg/mL (≈ 16 µM)	32 µg/mL (≈ 31.9 µM)	16 µg/mL (≈ 16 µM)	16 µg/mL (≈ 16 µM)	32 µg/mL (≈ 31.9 µM)	64 µg/mL (≈ 63.9 µM)	8 µg/mL (≈ 7.98 µM)	16 µg/mL (≈ 16 µM)	16 µg/mL (≈ 16 µM)	64 µg/mL (≈ 63.9 µM)	64 µg/mL (≈ 63.9 µM)	> 64 µg/mL	> 64 µg/mL	146 µg/mL (≈ 145 µM)	9.1
